According to ChEMBL document CHEMBL3351322, “Study the interactions between human serum albumin and two antifungal drugs: fluconazole and its analogue DTP” (Bioorg Med Chem Lett, 2014):

Assays:
Type in all cases: ADME
Albumin [1] = biological target: T1, Albumin (Homo sapiens, UniProt P02768); test: Binding affinity to human serum albumin at 0.4 to 5.6 x 10' -5 M by UV-Vis spectroscopy; details: isolated protein
Albumin [2] = biological target: T1, Albumin; test: Ratio of binding constant for human serum albumin in presence of Ba2+ to binding constant for human serum albumin in absence of metal ions
Albumin [3] = biological target: T1, Albumin; test: Ratio of binding constant for human serum albumin in presence of Mn2+ to binding constant for human serum albumin in absence of metal ions
Albumin [4] = biological target: T1, Albumin; test: Ratio of binding constant for human serum albumin in presence of Ni2+ to binding constant for human serum albumin in absence of metal ions
Albumin [5] = biological target: T1, Albumin; test: Ratio of binding constant for human serum albumin in presence of La3+ to binding constant for human serum albumin in absence of metal ions
Albumin [6] = biological target: T1, Albumin; test: Ratio of binding constant for human serum albumin in presence of Cr3+ to binding constant for human serum albumin in absence of metal ions
Albumin [7] = biological target: T1, Albumin; test: Ratio of binding constant for human serum albumin in presence of Cu2+ to binding constant for human serum albumin in absence of metal ions
Albumin [8] = biological target: T1, Albumin; test: Ratio of binding constant for human serum albumin in presence of Fe3+ to binding constant for human serum albumin in absence of metal ions
Albumin [9] = biological target: T1, Albumin; test: Ratio of binding constant for human serum albumin in presence of Zn2+ to binding constant for human serum albumin in absence of metal ions
Albumin [10] = biological target: T1, Albumin; test: Ratio of binding constant for human serum albumin in presence of Co2+ to binding constant for human serum albumin in absence of metal ions
Albumin [11] = biological target: T1, Albumin; test: Ratio of binding constant for human serum albumin in presence of Mg2+ to binding constant for human serum albumin in absence of metal ions

T1 sequence (P02768 whole entry): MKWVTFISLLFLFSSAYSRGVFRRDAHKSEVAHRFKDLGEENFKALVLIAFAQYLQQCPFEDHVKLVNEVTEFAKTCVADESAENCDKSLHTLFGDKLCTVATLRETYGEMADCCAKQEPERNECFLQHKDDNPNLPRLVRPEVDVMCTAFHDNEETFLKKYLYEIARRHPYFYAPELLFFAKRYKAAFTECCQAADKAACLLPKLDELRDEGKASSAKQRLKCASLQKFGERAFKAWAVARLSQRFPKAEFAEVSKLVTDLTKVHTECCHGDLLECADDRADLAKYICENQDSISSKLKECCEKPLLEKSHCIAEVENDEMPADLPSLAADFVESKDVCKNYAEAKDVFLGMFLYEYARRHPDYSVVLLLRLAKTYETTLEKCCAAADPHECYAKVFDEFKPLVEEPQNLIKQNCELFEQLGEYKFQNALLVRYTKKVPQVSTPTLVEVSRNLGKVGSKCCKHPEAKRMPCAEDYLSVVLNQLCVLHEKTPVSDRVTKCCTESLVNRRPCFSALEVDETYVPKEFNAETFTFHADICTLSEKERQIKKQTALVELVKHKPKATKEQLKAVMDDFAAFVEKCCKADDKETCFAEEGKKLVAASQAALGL

Row | SMILES | Activity (Albumin [1]) | Ratio (Albumin [2]) | Ratio (Albumin [3]) | Ratio (Albumin [4]) | Ratio (Albumin [5]) | Ratio (Albumin [6]) | Ratio (Albumin [7]) | Ratio (Albumin [8]) | Ratio (Albumin [9]) | Ratio (Albumin [10]) | Ratio (Albumin [11])
1 | OC(Cn1cncn1)(Cn1cncn1)c1ccc(Cl)cc1Cl | Active |  |  |  |  |  |  |  |  |  | 
2 | OC(Cn1cncn1)(Cn1cncn1)c1ccc(F)cc1F [FLUCONAZOLE] | Active | 0.956 | 0.868 | 0.857 | 0.905 | 0.866 | 0.961 | 0.741 | 1.11 | 0.945 | 1.081
